One assay has as its target T1, hNAGS (human NAGS) (Homo sapiens, UniProt Q8N159).
T1 construct: appears to be tetramer
T1 sequence (Q8N159 51-534): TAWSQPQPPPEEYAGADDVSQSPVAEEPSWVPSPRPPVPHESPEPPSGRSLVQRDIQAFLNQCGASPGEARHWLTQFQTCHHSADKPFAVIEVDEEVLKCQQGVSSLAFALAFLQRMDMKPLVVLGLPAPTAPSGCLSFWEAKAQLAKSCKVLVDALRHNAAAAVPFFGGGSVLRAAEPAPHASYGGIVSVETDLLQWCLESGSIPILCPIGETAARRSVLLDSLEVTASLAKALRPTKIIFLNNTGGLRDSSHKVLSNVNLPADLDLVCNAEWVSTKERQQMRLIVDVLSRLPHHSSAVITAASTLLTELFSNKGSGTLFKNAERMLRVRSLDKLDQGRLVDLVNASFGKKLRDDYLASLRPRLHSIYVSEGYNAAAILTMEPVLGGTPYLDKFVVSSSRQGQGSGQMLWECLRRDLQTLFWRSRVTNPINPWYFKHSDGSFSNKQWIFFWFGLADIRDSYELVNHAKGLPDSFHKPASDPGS
Put plainly: NAGS specific activity. Type of assay: biochemical.

The target in another assay is T2, mNAGS (mouse NAGS) (Mus musculus, UniProt Q8R4H7).
T2 construct: appears to be tetramer
T2 sequence (Q8R4H7 51-527): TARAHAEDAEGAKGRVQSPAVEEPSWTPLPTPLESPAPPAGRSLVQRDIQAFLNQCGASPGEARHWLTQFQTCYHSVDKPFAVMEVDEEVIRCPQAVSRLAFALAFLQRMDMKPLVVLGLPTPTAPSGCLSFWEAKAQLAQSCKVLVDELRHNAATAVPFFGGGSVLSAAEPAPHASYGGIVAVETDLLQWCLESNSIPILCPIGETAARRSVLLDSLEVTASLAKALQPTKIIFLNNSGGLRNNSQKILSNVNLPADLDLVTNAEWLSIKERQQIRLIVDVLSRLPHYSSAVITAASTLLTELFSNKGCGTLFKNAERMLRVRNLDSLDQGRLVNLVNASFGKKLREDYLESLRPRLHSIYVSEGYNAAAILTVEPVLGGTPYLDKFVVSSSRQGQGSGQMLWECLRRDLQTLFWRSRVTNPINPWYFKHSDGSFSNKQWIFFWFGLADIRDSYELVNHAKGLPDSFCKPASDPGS
Kind of assay: NAGS specific activity. The assay is classed as biochemical.

As to `CC(=O)SCCNC(=O)CCNC(=O)[C@H](O)C(C)(C)COP(=O)(O)OP(=O)(O)OC[C@H]1O[C@@H](n2cnc3c(N)ncnc32)[C@H](O)[C@@H]1OP(=O)(O)O` [acetyl coenzyme A], the NAGS specific activity entry is “catalyzes formation of N-acetylglutamate (NAG) from glutamate and acetyl coenzyme A” on hNAGS (human NAGS) (co-substrate glutamate); “catalyzes formation of N-acetylglutamate (NAG) from glutamate and acetyl coenzyme A” at mNAGS (mouse NAGS) (co-substrate glutamate).

Consider `N[C@@H](CCC(=O)O)C(=O)O` [glutamate], for which the NAGS specific activity result on hNAGS (human NAGS) (co-substrate acetyl coenzyme A) was “catalyzes formation of N-acetylglutamate (NAG) from glutamate and acetyl coenzyme A”; on mNAGS (mouse NAGS) (co-substrate acetyl coenzyme A), “catalyzes formation of N-acetylglutamate (NAG) from glutamate and acetyl coenzyme A”.

The values are drawn from PMC7878489, “Gene delivery corrects N-acetylglutamate synthase deficiency and enables insights in the physiological impact of L-arginine activation of N-acetylglutamate synthase” (Scientific Reports, 2021).
